Assay results published in paper PMC8536644, “Enigmatic mechanism of the N-vinylpyrrolidone hepatocarcinogenicity in the rat” (Archives of Toxicology, 2021).
“And” between values parts separate entries of the source, which are not always exact repeats. Equal entries are not always repeated. Where two headings read alike, the source gives them in different places.

Legend:
rat liver cells = assay: Comet assay, conventional (no FPG), liver; details: liver, no FPG, 5 days; for TI (%), mean of medians from 2 slides: individual animals
Procedure: Animals were anesthetized by 3.5% isoflurane (approximately 3 min, evaporator Dräger Vapor 19.3) and then killed by cervical dislocation. The liver was removed and its left lateral lobe used for the Comet assay. The remainder of the liver was washed in saline and then in two aliquots shock frozen in liquid nitrogen and stored at − 80 °C for later examinations. Subsequently the lung was removed from the dead animal. Its left lobe was used for the Comet assay and the remainder treated as described above for the liver. Thereafter the femora were removed for the preparation of the bone marrow.
The Comet assay was performed under alkaline conditions according to the principles described by Singh et al. ([1988]) and Tice et al. ([2000]).
Liver and lung cells were obtained essentially as described by Hartmann et al. ([2004]) and by the Japanese Center for the Validation of Alternative Methods (JaCVAM [2009]). Single cells were obtained within 1 h after killing of the animals in order to minimize DNA damage during the preparation.
The organ parts (see above) were washed in mincing buffer (50 mM EDTA in HBSS [without Ca^2+ and Mg^2+] pH 7.5: DMSO 9:1 (v/v), the latter added shortly before use, stored at 4 °C), cut into 1 to 2-mm pieces in ice-cold mincing buffer and transferred to a cell sieve with 70-µm pores. The viability of the cell suspension was evaluated by the Trypan Blue Assay (Strober [2001]).
100 µL of the obtained cell suspension was mixed at 37 °C with 900 µL Low Melting Agarose (LMA) (0.7% agarose in phosphate-buffered saline [PBS] [Biochrom, Berlin, Germany] without Ca^2+ and Mg^2+). 100 µL of this mixture was transferred to a slide, which had been coated with Normal Melting Agarose (NMA) (0.6% agarose in PBS without Ca^2+ and Mg^2+). The slides were protected with a cover slip and the agarose was hardened at approximately 4 °C. The cover slips were then removed and the slides put over night at 4 °C into lysis buffer (2.5 M NaCl, 125 mM NaOH, 127 mM EDTA, 10 mM Tris/NaOH, pH 10; 1% Triton X-100 and 10% DMSO (v/v), the latter two added before use) in order to lyse the cell membrane, nuclear membrane and remove the histone.
The then following procedures were performed in a shaded room to minimize UV-mediated DNA damage during the procedures.
Remaining lysis buffer or FPG buffer was removed by immersing/washing the slides in PBS (without Ca^2+ and Mg^2+).
The slides were then placed into the electrophoresis chamber, which was cooled and protected from light. Slides were covered with electrophoresis buffer (0.3 M NaOH, 1 mM EDTA, pH > 13) carefully avoiding air bubbles. The DNA was allowed to unwind (20 min). Thereafter the electrophoresis was started (25 V, 300 mA, […], 30 min). The slides were then washed (2 times 5 min) in neutralization buffer (0.4 M Tris/HCl, pH 7.5), dehydrated and fixed in 100% ethanol (1 min), dried at room temperature overnight and stored at room temperature protected from dust.
Quantitative evaluation of the Comet assays was performed by fluorescence microscopy after DNA staining with ethidium bromide.

[1] = Trypan Blue viability of the single cell suspension, lung; assay type: in vivo, rat; details: rat, inhaled

For `C=CN1CCCC1=O` [NVP, N-vinylpyrrolidone], which “Hedgehogs/100 cells (mean ± SD)” value (rat liver cells; female, 10 ppm inhalation) is on record?
The value was 4 ± 4 /100 cells.

What about the “TI (%) (mean ± SD)” value (rat liver cells; female, 10 ppm inhalation) of the same compound?
The value was 0.9 ± 0.48%.

What about the “TI (%), mean of medians from 2 slides” value (rat liver cells; female, 10 ppm inhalation) of the same compound?
Its value is 1.3% and 0.6% and 0.5% and 1.4% and 0.3%.

And the “Hedgehogs/100 cells (mean ± SD)” value (rat liver cells; female, 20 ppm inhalation)?
Its value is 3 ± 2 /100 cells.

And the “TI (%) (mean ± SD)” value (rat liver cells; female, 20 ppm inhalation)?
Its value is 0.7 ± 0.34%.

And the “Hedgehogs/100 cells (mean ± SD)” value (rat liver cells; male, 5 ppm inhalation)?
Its value is 3 ± 2 /100 cells.

What about the “TI (%) (mean ± SD)” value (rat liver cells; male, 5 ppm inhalation) of the same compound?
Its value is 0.9 ± 0.22%.

And the “TI (%), mean of medians from 2 slides” value (rat liver cells; male, 5 ppm inhalation)?
Its value is 1.2% and 0.9% and 0.6% and 0.7% and 1.1%.

And the “Hedgehogs/100 cells (mean ± SD)” value (rat liver cells; male, 10 ppm inhalation)?
The value was 3 ± 1 /100 cells.

And the “TI (%) (mean ± SD)” value (rat liver cells; male, 10 ppm inhalation)?
Its value is 1.0 ± 0.68%.

What about the “TI (%), mean of medians from 2 slides” value (rat liver cells; male, 10 ppm inhalation) of the same compound?
The value was 0.7% and 2.4% and 1.0% and 0.6%.

And the “Hedgehogs/100 cells (mean ± SD)” value (rat liver cells; male, 20 ppm inhalation)?
Its value is 3 ± 1 /100 cells.

What about the “TI (%) (mean ± SD)” value (rat liver cells; male, 20 ppm inhalation) of the same compound?
Its value is 0.7 ± 0.34%.

And the “TI (%), mean of medians from 2 slides” value (rat liver cells; male, 20 ppm inhalation)?
Its value is 1.2% and 0.8% and 0.5% and 1.0% and 0.3%.

What about the viability at 5 days ([1]; both sexes, Wistar Crl:WI (Han), lung single cell suspension, lung cells, NVP-exposed, read-out: Viability, range of the individual animals) of the same compound?
Its viability at 5 days is 93 to 100%.

And the viability at 5 days ([1]; female, Wistar, lung, 5 ppm, lung, female, Comet with FPG (Table 11), 5 ppm inhalation, 5 days, individual animals, read-out: Individual viability (%))?
The viability at 5 days was 99%.

And the viability at 5 days ([1]; female, Wistar, lung, 5 ppm, lung, female, Comet with FPG (Table 11), 5 ppm inhalation, 5 days, read-out: Viability (%) (mean ± SD))?
Its viability at 5 days is 99 ± 1%.

And the viability at 5 days ([1]; female, Wistar, lung, 5 ppm, lung, female, no FPG, 5 ppm inhalation, 5 days, individual animals, read-out: Individual viability (%))?
The viability at 5 days was 99%.

What about the viability at 5 days ([1]; female, Wistar, lung, 5 ppm, lung, female, no FPG, 5 ppm inhalation, 5 days, read-out: Viability (%) (mean ± SD)) of the same compound?
Its viability at 5 days is 99 ± 1%.

And the viability at 5 days ([1]; female, Wistar, lung, 10 ppm, lung, female, Comet with FPG (Table 11), 10 ppm inhalation, 5 days, individual animals, read-out: Individual viability (%))?
The viability at 5 days was 98%.

What about the viability at 5 days ([1]; female, Wistar, lung, 10 ppm, lung, female, Comet with FPG (Table 11), 10 ppm inhalation, 5 days, read-out: Viability (%) (mean ± SD)) of the same compound?
Its viability at 5 days is 98 ± 1%.

What about the viability at 5 days ([1]; female, Wistar, lung, 10 ppm, lung, female, no FPG, 10 ppm inhalation, 5 days, individual animals, read-out: Individual viability (%)) of the same compound?
The viability at 5 days was 98%.

And the viability at 5 days ([1]; female, Wistar, lung, 10 ppm, lung, female, no FPG, 10 ppm inhalation, 5 days, read-out: Viability (%) (mean ± SD))?
The viability at 5 days was 98 ± 1%.

And the viability at 5 days ([1]; female, Wistar, lung, 20 ppm, lung, female, Comet with FPG (Table 11), 20 ppm inhalation, 5 days, individual animals, read-out: Individual viability (%))?
Its viability at 5 days is 98%.

And the viability at 5 days ([1]; female, Wistar, lung, 20 ppm, lung, female, Comet with FPG (Table 11), 20 ppm inhalation, 5 days, read-out: Viability (%) (mean ± SD))?
The viability at 5 days was 98 ± 1%.

What about the viability at 5 days ([1]; female, Wistar, lung, 20 ppm, lung, female, no FPG, 20 ppm inhalation, 5 days, individual animals, read-out: Individual viability (%)) of the same compound?
The viability at 5 days was 98%.

What about the viability at 5 days ([1]; female, Wistar, lung, 20 ppm, lung, female, no FPG, 20 ppm inhalation, 5 days, read-out: Viability (%) (mean ± SD)) of the same compound?
The viability at 5 days was 98 ± 1%.

And the viability at 5 days ([1]; male, Wistar, lung, 5 ppm, lung, male, Comet with FPG (Table 10), 5 ppm inhalation, 5 days, individual animals, read-out: Individual viability (%))?
The viability at 5 days was 97%.

What about the viability at 5 days ([1]; male, Wistar, lung, 5 ppm, lung, male, Comet with FPG (Table 10), 5 ppm inhalation, 5 days, read-out: Viability (%) (mean ± SD)) of the same compound?
The viability at 5 days was 98 ± 1%.

And the viability at 5 days ([1]; male, Wistar, lung, 5 ppm, lung, male, no FPG, 5 ppm inhalation, 5 days, individual animals, read-out: Individual viability (%))?
The viability at 5 days was 97%.

What about the viability at 5 days ([1]; male, Wistar, lung, 5 ppm, lung, male, no FPG, 5 ppm inhalation, 5 days, read-out: Viability (%) (mean ± SD)) of the same compound?
Its viability at 5 days is 98 ± 1%.

What about the viability at 5 days ([1]; male, Wistar, lung, 10 ppm, lung, male, Comet with FPG (Table 10), 10 ppm inhalation, 5 days, individual animals, read-out: Individual viability (%)) of the same compound?
Its viability at 5 days is 99%.

And the viability at 5 days ([1]; male, Wistar, lung, 10 ppm, lung, male, Comet with FPG (Table 10), 10 ppm inhalation, 5 days, read-out: Viability (%) (mean ± SD))?
The viability at 5 days was 98 ± 2%.

What about the viability at 5 days ([1]; male, Wistar, lung, 10 ppm, lung, male, no FPG, 10 ppm inhalation, 5 days, individual animals, read-out: Individual viability (%)) of the same compound?
Its viability at 5 days is 99%.

What about the viability at 5 days ([1]; male, Wistar, lung, 10 ppm, lung, male, no FPG, 10 ppm inhalation, 5 days, read-out: Viability (%) (mean ± SD)) of the same compound?
Its viability at 5 days is 98 ± 2%.

And the viability at 5 days ([1]; male, Wistar, lung, 20 ppm, lung, male, Comet with FPG (Table 10), 20 ppm inhalation, 5 days, individual animals, read-out: Individual viability (%))?
Its viability at 5 days is 100%.

What about the viability at 5 days ([1]; male, Wistar, lung, 20 ppm, lung, male, Comet with FPG (Table 10), 20 ppm inhalation, 5 days, read-out: Viability (%) (mean ± SD)) of the same compound?
Its viability at 5 days is 99 ± 1%.

And the viability at 5 days ([1]; male, Wistar, lung, 20 ppm, lung, male, no FPG, 20 ppm inhalation, 5 days, individual animals, read-out: Individual viability (%))?
The viability at 5 days was 100%.

What about the viability at 5 days ([1]; male, Wistar, lung, 20 ppm, lung, male, no FPG, 20 ppm inhalation, 5 days, read-out: Viability (%) (mean ± SD)) of the same compound?
Its viability at 5 days is 99 ± 1%.
